We go through 3 molecules from US6417180B1, “Zinc finger-reactive antimicrobial compounds” (priority 1998, dated 2002).

Molecules are shown by their SMILES.

For orientation: IC50 means the concentration that gives 50% inhibition. Lower therefore signals greater potency.

Test [1] has as its target T1, B. subtilis pol III (Bacillus subtilis, UniProt P13267).
T1 construct: the so-called wild-type pol III, was identical to the native enzyme found in B. subtilis; made in house; host or cells: E. coli AR120, plasmid pKC30/polC
As to the kind of experiment: 65Zn release from labeled pol III by MMTS (Sephadex G-25 separation). Particulars: 60 minutes, 0° C. It counts as biochemical. The method, then:
Pol III was labeled by growing bacteria transformed with the above-described pol III expression plasmids in the presence of ^65Zn. LB expression medium was first depleted of divalent trace metals by mixing the medium with 0.3 volume of Chelex-Na (Bio-Rad) for 24 hours at 0° C. The depleted medium was then supplemented with 0.1 mM MgCl2 to support a level of E. coli growth compatible with pol III expression. E. coli AR120 transformed with the pKC30/polC vector was grown at 30° C. in this magnesium-supplemented medium. When the culture reached an absorbance of 0.5 ([…], 1 cm path length), 10 ml of the culture was added to one liter of the zinc-depleted, magnesium-supplemented medium, which further included [^65Zn]Cl2 (New England Nuclear; specific activity of 2.7 mCi/μmole) to a radioactivity level of 1.1 μCi/ml medium. Incubation was continued until the culture reached an absorbance of 0.75. […]
To remove non-specifically bound ^65Zn and exogenous thiols, the pol III was dialyzed as described in Example 1 above, and the labeled protein was further dialyzed with HNE buffer (10 mM HEPES [pH 7.6], 100 mM NaCl, and 0.1 mM EDTA) to remove exogenous thiols. […] The fraction eluted with each step was analyzed by liquid scintillation counting to determine the amount of protein-bound ^65Zn (void volume) and the amount of free ^65Zn (included volume).

The target of test [2] is T1, B. subtilis pol III. Put plainly: Polymerase activity of pol III after treatment with zinc-removing compound. The conditions noted are these: 0.2 mM MMTS, one hour. The format is biochemical. Here is the method:
(§1) Polymerase activity was determined as described in Barnes et al., Meth. Enzymol., 262:35-42, 1995, using activated calf thymus DNA (Worthington) as template and primer and [^3H]dTTP as the substrate. One unit of polymerase activity was defined as the activity which catalyzes the incorporation of one nanomole of [^3H]dTMP in 10 minutes at 30° C. For determination of the KM of the polymerase for DNA, the concentration of activated calf thymus DNA was varied during assay from 0-0.8 mg/ml. For determination of the KM for dGTP, incorporation of [^3H] dTMP was followed as a function of dGTP concentration (0-0.5 mM), and the values for incorporation were corrected for dGTP-independent, background incorporation.
(§2) 0.2 nanomoles of pol III was mixed in 0.1 ml of HNE buffer (10 mM HEPES, 100 mM NaCl, and 10% glycerol [pH 7.6]) containing 0.3 mM Compound 20, and the mixture was incubated at 25° C. for one hour. The pol III was removed from Compound 20 by passage through a Sephadex G-25 spin column, and the enzyme assayed for polymerase activity and for its content of radioactive zinc (see procedures described above).
Ejection of Zinc by Treatment of Coordinating Thiolates with MMTS. The compound MMTS is described in Example 2 above. […]

Test [3] addresses T1, B. subtilis pol III. As to the kind of experiment: Radioactive zinc content of 65Zn-labeled pol III after treatment with zinc-removing compound. It counts as biochemical. Particulars: 0.2 mM MMTS, one hour. Here is the method:
as §2
Ejection of Zinc by Treatment of Coordinating Thiolates with MMTS. The compound MMTS is described in Example 2 above. 0.2 nanomoles of ^65Zn-labeled B. subtilis pol III was incubated with HNE buffer with or without 0.2 mM MMTS for one hour, and the samples assayed as described for the pol III treatment with Compound 20.

For test [4], the target named is T1, B. subtilis pol III. Put plainly: Reconstitution of zinc-deficient inactive polymerase with ZnCl2/DTT. It counts as biochemical. The conditions noted are these: pol III inactivated by MMTS; 0.01 mM ZnCl2 and 0.01 mM DTT, 25° C., 12 hours. Here is the method:
At 30 minute intervals, samples were removed and assayed for pol activity.

The target in test [5] is T2, Wildtype B. subtilis pol III (Bacillus subtilis, UniProt P13267).
T2 construct: made in house; host or cells: E. coli SG101, plasmid pSGA04
Put plainly: TMAU sensitivity of polymerase activity, wild-type enzyme. The format is biochemical. Here is the method: as §1
Tagged wild-type and mutant forms of pol III were obtained at greater than 95% homogeneity using the procedure of Example 1 above. The proteins were then subjected to EDTA-based dialysis, and analyzed for zinc content as described in Example 1.
(§3) Each of the five purified mutant enzymes of Table I was analyzed directly, in its native, undialyzed form, to assess the impact of the respective mutation on (1) exonuclease and polymerase activity; (2) affinity for exonuclease and polymerase substrates; and (3) sensitivity of the polymerase activity to TMAU, a dGTP analog which inhibits the pol III of Gram-positive eubacteria (Wright et al., Pharmac. Therap., 47:447-497, 1990).

The target of test [6] is T3, H909A B. subtilis pol III (Bacillus subtilis, UniProt P13267, H909A).
T3 construct: The H909A enzyme, although expressed as a full-length protein, was not readily produced in an amount sufficient for metal analysis; made in house; host or cells: E. coli SG101, plasmid pSGA04
Put plainly: TMAU sensitivity of polymerase activity, H909A mutant. It counts as biochemical. Particulars: H909A enzyme. Here is the method:
as §1
(§4) An oligonucleotide-based system (Altered Sites, Promega) was used to introduce the mutations into the segment of polC encoding the putative zinc finger. […]
as §3

Test [7] deals with T4, C915A B. subtilis pol III (Bacillus subtilis, UniProt P13267, C915A).
T4 construct: Each of the three full-length mutants (C912A, C915A, and C940A); made in house; host or cells: E. coli SG101, plasmid pSGA04
As to the kind of experiment: TMAU sensitivity of polymerase activity, C915A mutant. The conditions noted are these: C915A enzyme. The format is biochemical. Here is the method:
as §1, §4, §3

Test [8] addresses T5, C940A B. subtilis pol III (Bacillus subtilis, UniProt P13267, C940A).
T5 construct: Each of the three full-length mutants (C912A, C915A, and C940A); made in house; host or cells: E. coli SG101, plasmid pSGA04
Put plainly: TMAU sensitivity of polymerase activity, C940A mutant. Particulars: C940A enzyme. It counts as biochemical. Here is the method:
as §1, §4, §3

The subject of test [9] is methicillin-sensitive S. aureus (ATCC No. 29213). As to the kind of experiment: Thigh infection in neutropenic ICR/Swiss mice (Example 10). The format is in vivo. Particulars: 40 mg/kg i.v. at 2, 6, 12, 18 hours post-infection; 24 hours after infection; 100× diluted homogenate; saline controls about 500. Here is the method: Before infection with test bacteria, six six-week old pathogen-free ICR/Swiss mice are rendered neutropenic (less than 100 neutrophils per milliliter of blood) by intraperitoneal injection of two doses of cyclophosphamide. The first injection is made at 150 mg/kg four days before bacterial infection, and the second injection is made at 100 mg/kg one day before bacterial infection. Neutropenia is induced so that a wide variety of bacteria can be used for the subsequent infection.
Bacterial infection for each mouse is performed by inoculating 10^6 cfu of methicillin-sensitive S. aureus (ATCC No. 29213) in 100 μl of media into the right thigh muscle. The compound and control mixtures are administered intravenously into the tail vein of the animal at 2, 6, 12, and 18 hours post-infection. Two mice received 50 μl of a negative control mixture of physiological saline at each time point. Another pair of mice received a positive control mixture of 40 mg/kg body weight vancomycin in saline at each time point. The last two mice received 40 mg/kg body weight of the candidate compound in saline at each time point.
At 24 hours after infection, all mice are sacrificed, and the right thigh muscle of each mice removed. […] After incubating at 37° C. for 24 hours, the number of colonies on each plate is counted. […]

A further test deals with S. aureus. The conditions noted are these: 40 mg/kg intravenously every four hours; cited from earlier work.

For the molecule `CSS(C)(=O)=O` [MMTS, methylmethanethio-sulfonate], the “65Zn label released from pol III” value on B. subtilis pol III [1] (0.01 mM MMTS) is reported as “about 50%”; at B. subtilis pol III [1] (three higher concentrations (0.03, 0.10, 0.3 mM MMTS)) it was “greater than 95%”. The “pol III activity relative to control” value at B. subtilis pol III [2] is “less than 1 % of the control”. For the same molecule, the “radioactive zinc content relative to control” value at B. subtilis pol III [3] was “less than 2 % of the control”. Moreover, at B. subtilis pol III [4], the “reactivation of pol activity after treatment” value is reported as “No reactivation”.

As to `O=c1cc(Nc2ccc3c(c2)CCC3)[nH]c(=O)[nH]1` [TMAU], the IC50 in test [5] is 4.1 µM; in test [6] it was 4 µM; in test [7] it was 2.9 µM; in test [8] it was 4 µM.

Consider `CN[C@H](CC(C)C)C(=O)N[C@H]1C(=O)N[C@@H](CC(N)=O)C(=O)N[C@H]2C(=O)N[C@H]3C(=O)N[C@H](C(=O)N[C@H](C(=O)O)c4cc(O)cc(O)c4-c4cc3ccc4O)[C@H](O)c3ccc(c(Cl)c3)Oc3cc2cc(c3O[C@@H]2O[C@H](CO)[C@@H](O)[C@H](O)[C@H]2O[C@H]2C[C@](C)(N)[C@H](O)[C@H](C)O2)Oc2ccc(cc2Cl)[C@H]1O` [vancomycin], for which the “colonies from thigh muscle homogenate” value in test [9] is given as “about 40 colonies on each plate”. In addition, in the test with S. aureus, the “reduction in S. aureus proliferation compared with control thighs” value is listed as “two to four”.
